“Also recorded” adds a separate entry of the source. Marks after values point to notes of the source that are not given here. Residues, ends and D or L forms follow the SMILES beside them.
Tests used:
[1] = DPPH free radical scavenging assay; conditions: peptide 10 mg/mL; 0.1 mM DPPH in ethanol, 30 °C for 30 min; absorbance 517 nm; mean ± standard deviation (n = 3); SD
Procedure: The free radical scavenging potential of peptides was measured according to Blois. Briefly, 0.1 mM DPPH stock solution was prepared in ethanol. In a dark setting, 500 µL of DPPH was added to 16.65 µL peptide sample (10 mg/mL) and incubated at 30 °C for 30 min. The absorbance of the mixture was then monitored at 517 nm using a spectrophotometer. Gallic acid was used as the positive control. The DPPH free radical scavenging activity is calculated as follows:(6) DPPH free radical scavenging activity %=Acontrol−Asample/Acontrol×100 where Acontrol denotes the absorbance of the system containing DPPH and ethanol whereas Asample denotes the absorbance of the system containing DPPH and peptide sample.

[2] = Ferric reducing antioxidant power (FRAP) assay; conditions: peptide 10 mg/mL; 37 °C for 1 h; absorbance 593 nm; mean ± standard deviation (n = 3); SD
Procedure: The reducing potential of peptides was measured according to Benzie and Strain [20]. ferric reducing antioxidant power (FRAP) reagent containing 300 mM acetate buffer (pH 3.6), 10 mM TPTZ prepared in 40 mM HCl and 20 mM FeCl3⸱6H2O in the ratio of 10:1:1 was incubated at 37 °C for 30 min. Then, 200 µL of FRAP reagent was added to 2.7 µL peptide sample (10 mg/mL) in a 96-well plate and mixed well before incubating at 37 °C for 1 h. The absorbance of the sample was then measured spectrophotometrically at 593 nm. Freshly prepared FRAP reagent was used for each run. A standard curve was prepared using FeSO4⸱7H2O at 0–3 mM. The peptide FRAP was expressed in mM FeSO4. Gallic acid was used as the positive control.

[3] = ABTS free radical scavenging assay; conditions: peptide 10 mg/mL; dark, room temperature, 6 min; absorbance 734 nm; mean ± standard deviation (n = 3); SD
Procedure: The free radical scavenging potential of peptides was measured according to Cai, Luo, Sun and Corke. Briefly, ABTS reagent containing 7 mM ABTS and 2.45 mM ammonium persulfate were incubated in the dark at room temperature for 12–16 h. The reagent was diluted using 80% ethanol to an absorbance of 0.700 ± 0.005 at 734 nm. Then, 195 µL of the diluted ABTS reagent was added to 5 µL of peptide sample (10 mg/mL) and incubated in the dark at room temperature for 6 min. The absorbance of the sample at 734 nm was monitored immediately using a spectrophotometer. Gallic acid was used as the positive control. The ABTS free radical scavenging activity is calculated as follows:(5) ABTS free radical scavenging activity %=Acontrol−Asample/Acontrol×100 where Acontrol denotes the absorbance of the system containing ABTS and water whereas Asample denotes the absorbance of the system containing ABTS and peptide sample.

tyrosinase = target: tyrosinase; set-up: method as in 2 sources, ref 25 = [25]; PMID 10441774; doi:10.1002/(SICI)1099-1573(199908/09)13:5<371::AID-PTR453>3.0.CO;2-L; 25. Lim J.Y. Ishiguro K. Kubo I. Tyrosinase inhibitory p-Coumaric acid from Ginseng leaves Phytother. Res. 1999 13 371 375 10.1002/(SICI)1099-1573(199908/09)13:5<371::AID-PTR453>3.0.CO;2-L 10441774 ||| ref 26 = [26]; PMID 3141207; doi:10.1007/BF01941189; 26. Maddaluno J.F. Faull K.F. Inhibition of mushroom tyrosinase by 3-amino-L-tyrosines: Molecular probing of the active site of the enzyme Experientia 1988 44 885 887 10.1007/BF01941189 3141207; conditions: read-out: IC50 (tyrosinase mixed-type inhibitor); cited from earlier work
[4] = Copper chelating activity (pyrocatechol violet); conditions: peptide 10 mg/mL, 50 mM sodium acetate buffer pH 6.0, absorbance 632 nm, mean ± standard deviation (n = 3), SD
Procedure: The copper chelating activity was determined according to Kubglomsong et al.. Briefly, 4 mM of chromogenic reagent, i.e., pyrocatechol violet was prepared in 50 mM sodium acetate buffer (pH 6.0). Then, 10 µL of peptide sample (10 mg/mL), 280 µL sodium acetate buffer, 10 µL CuSO4∙5H2O and lastly 6 µL pyrocatechol violet were added to a 96-well plate. The sample solution was mixed well and the absorbance was measured at 632 nm using a spectrophotometer (Spectramax M5, Molecular Devices, San Jose, CA, USA). Ethylenediaminetetraacetic acid (EDTA) was used as the positive control. The copper chelating activity is calculated as follows:(3) Copper chelating activity %=Acontrol−Asample/Acontrol×100 where Acontrol denotes the absorbance of the system containing sodium acetate buffer, pyrocatechol violet and CuSO4∙5H2O whereas Asample denotes the absorbance of the system containing peptide, sodium acetate buffer, pyrocatechol violet and CuSO4∙5H2O.

[5] = Sun protection factor (SPF) by UV spectrophotometry, Mansur equation; type: physicochemical; conditions: peptide 10 mg/mL, UVB 290–320 nm absorbance, CF 10, mean ± standard deviation (n = 3), SD
Procedure: The ability of peptides to absorb light in the UVB region (290–320 nm) was measured according to the methods described by Dutra, Kedor-Hackmann and Santoro [18]. The UV–Vis spectrophotometer was set to scan the peptide samples from 220 to 400 nm with a 5 nm increment. The SPF values of the peptide samples (10 mg/mL) were calculated using the Mansur equation:(4) SPF=CF×∑290320EEλ×Iλ×Absλ where CF denotes correction factor of 10 (for the short pathlength used); EE denotes erythemal effect spectrum; I denotes solar intensity spectrum and Abs denotes the absorbance of sample.

Mushroom tyrosinase [6] = target: T1, Mushroom tyrosinase (Agaricus bisporus, UniProt C7FF04); test: Monophenolase inhibitory activity of tyrosinase (ʟ-tyrosine as substrate) and Lineweaver–Burk mode of inhibition; type: biochemical; conditions: monophenolase reaction; for Tyrosinase Activity Inhibition (%): substrate ʟ-tyrosine, peptide concentration 10 mg/mL, mean ± standard deviation (n = 3), SD; for Mode of Inhibition: Lineweaver–Burk plot, [S] 0.125 to 0.5 mM, different peptide concentrations
T1 construct: purchased Sigma-Aldrich
Procedure: (§1) The monophenolase and diphenolase inhibitory activities of tyrosinase were determined by using ʟ-tyrosine and ʟ-DOPA as substrates, respectively, as previously described. Various concentrations of peptides were tested to determine the IC50 values, i.e., the concentration of peptides required to inhibit half of the tyrosinase activities. The activities of monophenolase and diphenolase reactions were determined through the measurement of the rate of formation of dopachrome in the presence of substrate concentrations, [S] ranging from 0.125 to 0.5 mM. The initial velocity, V of the reaction was determined using the Beer–Lambert law:(1) ΔA=ε l Δc (2) V=ΔC/t=ΔA/ε l t where ΔC/t denotes the rate of change of the solution concentration; ΔA/t denotes the rate of change of absorbance i.e., slope of the reaction; ε denotes the molar extinction coefficient of dopachrome (3700 M^−1 cm^−1) and l denotes the pathlength.
Target sequence in this assay (C7FF04 1-392): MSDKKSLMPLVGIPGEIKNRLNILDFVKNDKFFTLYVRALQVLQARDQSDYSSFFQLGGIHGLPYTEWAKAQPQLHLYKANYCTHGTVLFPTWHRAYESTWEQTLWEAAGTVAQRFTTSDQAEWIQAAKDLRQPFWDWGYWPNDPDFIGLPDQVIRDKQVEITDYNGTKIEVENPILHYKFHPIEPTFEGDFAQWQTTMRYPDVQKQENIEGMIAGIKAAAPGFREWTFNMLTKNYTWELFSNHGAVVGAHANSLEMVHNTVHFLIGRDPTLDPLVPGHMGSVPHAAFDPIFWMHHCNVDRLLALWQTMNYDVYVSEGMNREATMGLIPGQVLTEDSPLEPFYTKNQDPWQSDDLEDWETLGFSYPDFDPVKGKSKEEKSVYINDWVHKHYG

Mushroom tyrosinase [7] = target: T1, Mushroom tyrosinase; test: Diphenolase inhibitory activity of tyrosinase (ʟ-DOPA as substrate) and Lineweaver–Burk mode of inhibition; type: biochemical; conditions: diphenolase reaction; for Mode of Inhibition: Lineweaver–Burk plot, [S] 0.125 to 0.5 mM, different peptide concentrations
Procedure: as §1
Target sequence in this assay (C7FF04 1-392 limits assumed): as the sequence (C7FF04 1-392) above

[8] = substrate ʟ-DOPA, peptide concentration 10 mg/mL, mean ± standard deviation (n = 3), SD

Tyrosinase Activity Inhibition (%) (Mushroom tyrosinase [6])	Mode of Inhibition (Mushroom tyrosinase [6])	Compound	Antioxidant Activity FRAP (mM FeSO4) [2]	Antioxidant Activity ABTS (%) free radical scavenging [3]	Copper Chelating Activity (%) [4]	SPF [5]	also measured
–	–	O=C(O)c1cc(O)c(O)c(O)c1 [Gallic acid, reference compound]	16.6 ± 0.36 ^c mM FeSO4	83.14 ± 3.02 ^d %	–	–	Antioxidant Activity DPPH (%) free radical scavenging [1]: 81.67 ± 0.03 ^b %
–	–	O=C(O)/C=C/c1ccc(O)cc1 [p-coumaric acid]	–	–	–	–	IC50 (tyrosinase): < 0.36 mM
22.78 ± 1.12 ^b %	mixed-type inhibitor	FDKLPGFGD [MIP3]	0.034 ± 0.002 ^a mM FeSO4	2.11%	94.43 ± 0.46 ^e %	1.36 ± 0.02 ^a	–
–	–	HIATNAVLFFGR [DIP2]	0.018 ± 0.001 ^a mM FeSO4	–	19.13 ± 2.22 ^b %	6.45 ± 0.40 ^d	Tyrosinase Activity Inhibition (%) (Mushroom tyrosinase [7]; [8]): 17.70 ± 2.66 ^a %; Mode of Inhibition (Mushroom tyrosinase [7]): weaker competitive inhibitor; also recorded: competitive inhibitors
–	–	CC(C)C[C@H](NC(=O)[C@H](CO)NC(=O)[C@H](Cc1ccc(O)cc1)NC(=O)CN)C(=O)NCC(=O)N[C@@H](CC(N)=O)C(=O)N[C@@H](Cc1c[nH]c2ccccc12)C(=O)N[C@H](C(=O)N[C@@H](CS)C(=O)N[C@@H](C)C(=O)N[C@@H](C)C(=O)N[C@@H](CCCCN)C(=O)O)C(C)C [DIP1] (H-GYSLGNWVCAAK-OH)	–	–	–	–	IC50 (Mushroom tyrosinase [7]; substrate ʟ-DOPA, mean ± standard deviation, SD): 3.04 ± 0.39 mM; inhibition at 10000 µg/mL (Mushroom tyrosinase [7]; [8]): 80 ± 2.79%
–	–	O=C(O)CN(CCN(CC(=O)O)CC(=O)O)CC(=O)O [EDTA, Ethylenediaminetetraacetic acid, reference compound]	–	–	96.06 ± 0.03^e %	–	–
35.86 ± 2.26 ^d %	competitive inhibitors	ADHPF [MIP1]	0.035 ± 0.004 ^a mM FeSO4	2.90 ± 0.28 ^b %	94.33 ± 0.04 ^e %	1.80 ± 0.02 ^b	–
–	–	FMMFESQNKDLLFK [DIP3]	–	0.99%	26.23 ± 1.03 ^c %	1.98 ± 0.05 ^b	Tyrosinase Activity Inhibition (%) (Mushroom tyrosinase [7]; [8]): 28.95 ± 1.47 ^c %; Mode of Inhibition (Mushroom tyrosinase [7]): uncompetitive inhibitor

Compound	Tyrosinase Activity Inhibition (%) (Mushroom tyrosinase [6])	Mode of Inhibition (Mushroom tyrosinase [6])	Antioxidant Activity FRAP (mM FeSO4) [2]	Antioxidant Activity ABTS (%) free radical scavenging [3]	Copper Chelating Activity (%) [4]	SPF [5]	also measured
ILELPFASGDLLML [MIP2]	17.26 ± 2.10 ^a %	weaker competitive inhibitor; also recorded: competitive inhibitors	–	1.44%	11.41 ± 0.13 ^a %	3.12 ± 0.13 ^c	–
